Results on 27 compounds are retold here after PubChem BioAssay (NCI).

“And” between values parts separate entries of the source, which are not always exact repeats. Equal entries are not always repeated.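 A five-concentration, 48-hour dose response in 96-well plates underlies each endpoint, interpolated linearly between surrounding concentrations. GI50 marks 50% less growth. TGI: concentration producing complete growth inhibition.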

Among the test systems are DLD-1 colon; M19-MEL melanoma; RXF-631 renal; SNB-78 CNS; XF 498 CNS; HOP-18 NSCLC; MDA-MB-231 breast; MDA-N; T-47D breast; P388 leukemia; P388/ADR leukemia; SN12K1 renal.
Common to all, as to test: NCI tumour cell line growth inhibition, 48 h

In the case of `COC(=O)/C(=C/c1ccc(OC)cc1)C(C(=O)O)=C1CCCCC1`, the TGI with DLD-1 colon, in the test on M19-MEL melanoma, with RXF-631 renal, with SNB-78 CNS and in the test with XF 498 CNS was above 100 µM in each case.

`COc1cc2c3c(c1OC)C(=O)C=C3N(S(=O)(=O)c1ccc(C)cc1)CC2`: the TGI in the test on DLD-1 colon, in the test on HOP-18 NSCLC, with M19-MEL melanoma, in the test with SNB-78 CNS and with XF 498 CNS was above 100 µM each time.

With `O=c1[nH]c(=O)n(C2CC(O)C(CO)O2)cc1COCC(F)(F)F` (stereo not given), the TGI in the test with DLD-1 colon, in the test on M19-MEL melanoma, with RXF-631 renal, in the test with SNB-78 CNS and in the test on XF 498 CNS was above 100 µM in each case.

Turning to `C/C(O)=C(\N=O)C(=O)NCc1ccccc1`, the TGI in the test on DLD-1 colon, in the test on HOP-18 NSCLC, in the test on RXF-631 renal and with SNB-78 CNS was above 100 µM in each case.

As for `COc1cccc2nc3c(C(=O)NCCN(C)C)cccc3nc12`, the TGI with DLD-1 colon was above 83.6 µM; in the test with HOP-18 NSCLC it was above 79.4 µM; with M19-MEL melanoma, 22 µM; in the test on RXF-631 renal, above 67.2 µM; in the test on SNB-78 CNS, 69.8 µM; with XF 498 CNS, 29.1 µM.

For the compound `CC1(C)C(=O)C(=Cc2ccco2)C1=O`, the TGI with DLD-1 colon, in the test on HOP-18 NSCLC, in the test with M19-MEL melanoma, with RXF-631 renal, in the test on SNB-78 CNS and in the test on XF 498 CNS was above 100 µM in each case.

Consider `CN(C)CCCCCNc1c2ccccc2nc2cccc([N+](=O)[O-])c12`, for which the TGI was 0.031 µM in the test with DLD-1 colon; above 0.1 µM in the test on HOP-18 NSCLC; 0.0194 µM in the test on M19-MEL melanoma; 2.02 nM with MDA-MB-231 breast; 0.409 nM in the test with MDA-N; 0.0467 µM in the test with SNB-78 CNS. Besides, the results for the TGI in the test on T-47D breast and in the test with XF 498 CNS were 1.5 nM and 0.0085 µM, respectively. Moreover, the GI50 with T-47D breast was 0.296 nM.

`COc1cc2c(c(OC)c1OC)-c1ccc(SC)c(=O)cc1C(CC(=O)Oc1cccc(F)c1)C2` (stereo not given): the TGI is above 100 µM in the test with DLD-1 colon; above 100 µM with HOP-18 NSCLC; 16.2 µM in the test with M19-MEL melanoma; 20.7 µM in the test with RXF-631 renal; above 100 µM in the test on SNB-78 CNS; 36.8 µM in the test with XF 498 CNS.

Regarding `CCC(=O)C(C(=O)CC)c1c(OC(=O)c2ccccc2)ccc(O)c1C(=O)OC`, the TGI in the test on M19-MEL melanoma, in the test on RXF-631 renal, in the test on SNB-78 CNS and in the test with XF 498 CNS was above 100 µM each time.

Regarding `CC(=O)NC1=C(N)C(=O)c2ccccc2C1=O`, the TGI with DLD-1 colon was above 100 µM; with HOP-18 NSCLC it was above 100 µM; with M19-MEL melanoma, 41 µM; with RXF-631 renal it was above 100 µM; in the test with SNB-78 CNS, above 100 µM; in the test with XF 498 CNS, above 100 µM.

Turning to `O=C(/C(=N/Nc1ccccc1)c1ccc([N+](=O)[O-])cc1)c1ccc([N+](=O)[O-])cc1`, the TGI in the test with DLD-1 colon, with HOP-18 NSCLC, with M19-MEL melanoma, with SNB-78 CNS and in the test with XF 498 CNS was above 100 µM each time.

Consider `COc1ccc2c(c1)[n+](=O)c(C(=O)CC(=O)C(=O)Nc1cccc(C)c1C)c(C)n2[O-]`, for which the TGI in the test with DLD-1 colon, with HOP-18 NSCLC, in the test on M19-MEL melanoma, in the test on RXF-631 renal, in the test with SNB-78 CNS and in the test with XF 498 CNS was above 100 µM throughout.

For `CC(C)C(=S)N(C)O`, the TGI was above 100 µM in the test with DLD-1 colon, above 57.4 µM in the test with M19-MEL melanoma, above 100 µM in the test on RXF-631 renal and above 100 µM in the test with SNB-78 CNS.

With `Cc1cc2c(cc1CO)N1Cc3cc(C)c(CO)cc3N(C2)C1`, the TGI in the test with DLD-1 colon, in the test with HOP-18 NSCLC, in the test with M19-MEL melanoma, with SNB-78 CNS and in the test on XF 498 CNS was above 100 µM throughout.

Take `O=C1C=C(Nc2ccc(S(=O)(=O)Nc3ncccn3)cc2)c2ccccc2C1=O`: the TGI with DLD-1 colon was 43.5 µM; in the test on HOP-18 NSCLC, 82.6 µM; in the test with M19-MEL melanoma it was 29.3 µM; in the test with RXF-631 renal, 47.3 µM; in the test with SNB-78 CNS, above 100 µM.

For the compound `C1CC2=C(C1)C1=S(S2)SC2=C1CCC2`, the TGI with DLD-1 colon, in the test on HOP-18 NSCLC, in the test on M19-MEL melanoma, in the test with RXF-631 renal and with SNB-78 CNS was above 100 µM in each case.

As for `O=C(N/C(=C/c1cccc([N+](=O)[O-])c1)c1nc2ccc(Cl)cc2[nH]1)c1ccccc1`, the TGI in the test on HOP-18 NSCLC is above 100 µM; in the test on M19-MEL melanoma it was above 100 µM; with RXF-631 renal it was 27 µM; in the test on SNB-78 CNS, above 100 µM.

On to `CCC(C)(O)c1cn(-c2ccc(S(=O)(=O)O)cc2)nn1` (stereo not given), for which the TGI in the test on DLD-1 colon, in the test on HOP-18 NSCLC, in the test with M19-MEL melanoma, in the test with RXF-631 renal, in the test with SNB-78 CNS and with XF 498 CNS was above 100 µM each time.

`CCN(CC)c1ccc(N=Nc2ccc(-c3nc4cccn(C)c-4n3)cc2)cc1`: the TGI in the test on DLD-1 colon came to 36.1 µM; in the test with HOP-18 NSCLC it was 89.9 µM; with M19-MEL melanoma, 15.9 µM; in the test on RXF-631 renal, 33.7 µM; with SNB-78 CNS it was 77.2 µM; in the test on XF 498 CNS, 28.1 µM.

Take `COC(=O)CC(C(C(C)=O)C(=O)OCc1ccccc1)N1C(=O)OC(c2ccccc2)C1c1ccccc1` (stereo not given): the TGI with DLD-1 colon was above 100 µM; with HOP-18 NSCLC, 51.1 µM and > 100 µM; with M19-MEL melanoma it was above 100 µM; in the test on RXF-631 renal, above 100 µM; in the test on XF 498 CNS it was above 100 µM. The GI50 in the test with HOP-18 NSCLC is above 100 µM.

Turning to `O=C(NC(=O)c1cn(CCN2CCN(C(=O)NCCCCCCNC(=O)N3CCN(CCn4cc(C(=O)NC(=O)OCc5ccccc5)c(=O)[nH]c4=O)CC3)CC2)c(=O)[nH]c1=O)OCc1ccccc1`, the TGI in the test on DLD-1 colon, with HOP-18 NSCLC, in the test on M19-MEL melanoma, with RXF-631 renal and with SNB-78 CNS was above 100 µM each time.

On to `Cc1ccccc1N=Nc1c(-c2ccccc2)nn(C(=O)CC(=O)Nc2cccc(Cl)c2)c1-c1ccccc1`, for which the TGI is above 31.6 µM in the test with DLD-1 colon, above 31.6 µM with HOP-18 NSCLC, above 31.6 µM in the test with SNB-78 CNS and 74.6 µM with XF 498 CNS.

As to `CCCCCCCCCCOC(=O)c1cc[n+](C)cc1`, the TGI in the test with DLD-1 colon was 32.5 µM; in the test on HOP-18 NSCLC, above 100 µM; with M19-MEL melanoma, 32.9 µM; with SNB-78 CNS, 34.4 µM; with XF 498 CNS, 31.4 µM.

On to `c1ccc(C2CC(c3ccc4ccccc4c3)=Nc3ccccc3S2)cc1` (stereo not given), for which the TGI in the test on HOP-18 NSCLC turned out to be 58.5 µM; in the test with M19-MEL melanoma, 40.5 µM; with RXF-631 renal, 91.1 µM; in the test on SNB-78 CNS, 37.3 µM; in the test with XF 498 CNS, 31.2 µM.

As to `COc1ccc2c(c1)CCc1c(CO)c(COC(=O)NC(C)C)n(C)c1-2`, the TGI in the test on DLD-1 colon was 15.8 µM; in the test on HOP-18 NSCLC it was 13.1 µM; with M19-MEL melanoma, 23.3 µM; in the test on P388 leukemia it was 3.54 µM; in the test on P388/ADR leukemia, 6.22 µM; with RXF-631 renal it was above 100 µM. Moreover, the TGI in the test with SN12K1 renal was 17.2 µM; in the test on SNB-78 CNS, 39.5 µM; with XF 498 CNS it was above 62.6 µM.

As to `COc1cc(C2c3cc4c(cc3[C@@H](N(C)c3ccc(N(C)C)cc3)C3COC(=O)C23)OCO4)cc(OC)c1O` (stereo not given in full), the TGI in the test with DLD-1 colon came out at 37.5 µM; in the test on HOP-18 NSCLC, 26.2 µM; in the test on M19-MEL melanoma, 12.1 µM; with RXF-631 renal, 40.7 µM.

Regarding `O/N=C\C(=Nc1ccc(Cc2ccc(N=C(/C=N\O)NO)cc2)cc1)NO`, the TGI in the test with DLD-1 colon, with HOP-18 NSCLC, in the test on M19-MEL melanoma, with SNB-78 CNS and in the test on XF 498 CNS was above 100 µM throughout.
